In patent US9150544B2 (priority 2011, dated 2015):

Target: human factor IXa (Homo sapiens (Human), UniProt P00740)
Experiment: biochemical
Conditions: read-out: Imax IXa (percentage inhibition at the maximum concentration tested)

human factor IXa, sequence (P00740 whole entry, looked up): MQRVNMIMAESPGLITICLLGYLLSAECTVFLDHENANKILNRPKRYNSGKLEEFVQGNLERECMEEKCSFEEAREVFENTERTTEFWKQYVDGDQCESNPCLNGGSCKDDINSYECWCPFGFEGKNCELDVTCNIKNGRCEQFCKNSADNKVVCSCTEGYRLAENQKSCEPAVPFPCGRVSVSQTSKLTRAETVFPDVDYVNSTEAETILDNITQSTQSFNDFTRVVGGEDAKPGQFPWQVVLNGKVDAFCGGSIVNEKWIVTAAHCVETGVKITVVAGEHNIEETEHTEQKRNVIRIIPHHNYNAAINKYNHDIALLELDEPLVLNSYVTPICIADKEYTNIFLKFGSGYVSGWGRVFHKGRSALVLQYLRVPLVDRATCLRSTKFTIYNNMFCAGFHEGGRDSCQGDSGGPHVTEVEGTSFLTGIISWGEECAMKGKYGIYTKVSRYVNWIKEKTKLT
human factor IXa, sequence (P00740 whole entry partner, looked up): as the sequence (P00740 whole entry, looked up) above

**Q.** How did the inhibition at 5 µM turn out when `COC(=O)[C@@H](Cc1cc2ccnc(N)c2cc1C(F)(F)F)N1CC[C@H](NS(=O)(=O)c2cnc(N3CCC(F)(F)C3)s2)C1=O` [Compound 90, (R)-3-(1-Amino-7-trifluoromethyl-isoquinolin-6-yl)-2-{(S)-3-[2-(3,3-difluoro-pyrrolidin-1-yl)-thiazole-5-sulfonylamino]-2-oxo-pyrrolidin-1-yl}-propionic acid methyl ester] was run?
**A.** Its inhibition at 5 µM is 41%.
